Assay: xn = mol fraction of the nth substance listed
Settings: 101 kPa

CC(CC(C)(C)C)CP(=O)([O-])CC(C)CC(C)(C)C.CCCCCCCCCCCCCC[P+](CCCCCC)(CCCCCC)CCCCCC + CCCCCCCCCCCC
viscosity [mPa·s]
Settings	x1 = 0.4684	x1 = 0.6647	x1 = 0.8071	x1 = 1
298.15 K	–	249	449	1000
303.15 K	64.2	195	344	–
308.15 K	–	156	291	–
313.15 K	48	126	233	439
318.15 K	40.9	–	180	–
323.15 K	35.2	85	144	264
328.15 K	30.5	69.9	118	–
333.15 K	27.1	59.3	95.4	170
338.15 K	24.2	–	81.1	–
343.15 K	21.2	–	65	–
353.15 K	–	–	–	78

CCCCCCCCCCCCCC[P+](CCCC)(CCCC)CCCC.CCCCCCCCCCCCc1ccccc1S(=O)(=O)[O-] + CCCCCCCCCCCC
viscosity [mPa·s]
Settings	x1 = 0.354	x1 = 0.4402	x1 = 0.4844	x1 = 0.6789	x1 = 1
298.15 K	312	–	594	2930	–
303.15 K	225	–	441	1580	–
308.15 K	167	239	–	1130	–
313.15 K	–	–	–	812	1480
318.15 K	95	135	176	–	–
323.15 K	74.3	105	135	431	750
328.15 K	–	81.7	101	–	–
333.15 K	47.7	65.7	81.6	228	409
338.15 K	–	53.6	–	169	–
343.15 K	31.5	44.3	54.4	–	238
348.15 K	26.5	36.8	43.3	108	–
353.15 K	22.6	31.1	37.1	–	148

CCCCCCCCCCCCCC[P+](CCCCCC)(CCCCCC)CCCCCC.N#C[N-]C#N + CCCCCCCCCCCC
viscosity [mPa·s]
Settings	298.15 K	303.15 K	308.15 K	313.15 K	318.15 K	333.15 K	338.15 K	343.15 K	348.15 K	353.15 K
x1 = 0.5534	160	116	–	71.6	57.8	32.8	28	–	21.2	19
x1 = 0.736	238	181	141	–	89.1	49.3	41.4	35.5	30.3	26.1
x1 = 1	440	–	–	196	–	82	–	56	–	–

Source: a compilation of properties of binary mixtures (doi:10.1515/zpch-2013-0494)
